From patent US11958861B2, “Spirocyclic lactams as JAK2 V617F inhibitors” (Incyte Corporation, priority 2021, dated 2024)
Counter-ions that a name gives are not always drawn.

Assays:
[1] = biological target: T1, pseudo-kinase domain (JH2, amino-acids 536-812) of human V617F mutant JAK2 (Homo sapiens, UniProt O60674, F794H/V617F/W659A/W777A); assay: JAK2 LanthaScreen JH2-V617F Binding Assay; conditions: 1 hour at 25° C.
T1 construct: pseudo-kinase domain (JH2, amino-acids 536-812 with 3 surface mutations W659A, W777A, F794H); purchased BPS Bioscience 79498; host or cells: baculovirus expression system
Description: Example C. JAK2 LanthaScreen JH2-V617F Binding Assay
(§1) JAK2 JH2-V617F binding assay utilizes pseudo-kinase domain (JH2, amino-acids 536-812 with 3 surface mutations W659A, W777A, F794H) of human V617F mutant JAK2 expressed as C-terminal His-Avi-tagged, biotinylated protein in a baculovirus expression system (BPS Bioscience, Catalog #79498). The assay was conducted in black 384-well polystyrene plates in a final reaction volume of 20 μL. JAK2 JH2-V617F (0.26 nM) was incubated with compounds (100 nL serially diluted in DMSO) in the presence of 50 nM Fluorescent JAK2-JH2 Tracer (MedChem Express Catalog #HY-102055) and 0.25 nM Streptavidin-Tb cryptate (Cisbio Part #610SATLB) in assay buffer (50 mM Tris, pH=7.5, 10 mM MgCl2, 0.01% Brij-35, 0.1% BSA, 1 mM EGTA, 5% Glycerol and 5 mM DTT). Non-specific binding was accessed in the presence of 2 mM ATP. After incubation for 1 hour at 25° C., LanthaScreen signals were read on a PHERAstar FS plate reader (BMG LABTECH). Data was analyzed with IDBS XLfit and GraphPad Prism 5.0 software using a four parameter dose response curve to determine IC50 for each compound.

[2] = biological target: T2, pseudo-kinase domain (JH2, amino-acids 536-812) of human Wild Type JAK2 (Homo sapiens, UniProt O60674, F794H/W659A/W777A); assay: JAK2 LanthaScreen JH2-WT Binding Assay; conditions: 1 hour at 25° C.
T2 construct: pseudo-kinase domain (JH2, amino-acids 536-812 with 3 surface mutations W659A, W777A, F794H); purchased BPS Bioscience 79463; host or cells: baculovirus expression system
Description: Example B. JAK2 LanthaScreen JH2-WT Binding Assay
as §1, with “JH2-WT” for “JH2-V617F”, “Wild Type” for “V617F mutant”, “#79463).” for “#79498).”, “JH2-WT (0.145” for “JH2-V617F (0.26”

[3] = biological target: T3, catalytic domain (JH1, amino acids 826-1132) of human JAK2 (Homo sapiens, UniProt O60674); assay: JAK2 LanthaScreen JH1 Binding Assay; conditions: 2 hours at 25° C.
T3 construct: catalytic domain (JH1, amino acids 826-1132) of human JAK2; purchased Carna Biosciences 08-445-20N; host or cells: baculovirus expression system
Description: Example A. JAK2 LanthaScreen JH1 Binding Assay
JAK2 JH1 binding assay utilizes catalytic domain (JH1, amino acids 826-1132) of human JAK2 expressed as N-terminal FLAG-tagged, biotinylated protein in a baculovirus expression system (Carna Biosciences, Product #08-445-20N). The assay was conducted in black 384-well polystyrene plates in a final reaction volume of 20 μL. JAK2 JH1 (1.5 nM) was incubated with compounds (100 nL serially diluted in DMSO) in the presence of 50 nM Fluorescent JAK2-JH1 Tracer and 0.5 nM Streptavidin-Tb cryptate (Cisbio Part #610SATLB) in assay buffer (50 mM Tris, pH=7.5, 10 mM MgCl2, 0.01% Brij-35, 0.1% BSA, 1 mM EGTA, 5% Glycerol and 5 mM DTT). Non-specific binding was accessed in the presence of 2 mM ATP. After incubation for 2 hours at 25° C., LanthaScreen signals were read on a PHERAstar FS plate reader (BMG LABTECH). Data was analyzed with IDBS XLfit and GraphPad Prism 5.0 software using a four parameter dose response curve to determine IC50 for each compound.

[4] = biological target: T4, catalytic domain (JH1, amino acids 808-1132) of human JAK2 (Homo sapiens, UniProt O60674); assay: JAK2 HTRF Enzyme Activity Assay; format: biochemical; conditions: ATP 30 μM, read-out: ENZ 30UMATP
T4 construct: catalytic domain (JH1, amino acids 808-1132) of human JAK2; His (N); purchased BPS Bioscience 40450; host or cells: baculovirus expression system
Description: Example D. JAK2 HTRF Enzyme Activity Assay
JAK2 enzyme activity assays utilize catalytic domain (JH1, amino acids 808-1132) of human JAK2 expressed as N-terminal His-tagged protein in a baculovirus expression system (BPS Bioscience, Catalog #40450). The assays was conducted in black 384-well polystyrene plates in a final reaction volume of 20 μL. JAK2 (0.015 nM) was incubated with compounds (100 nL serially diluted in DMSO) in the presence of ATP (30 μM or 1 mM) and 500 nM Biotin-labeled […] (SEQ ID NO.: 1) peptide (BioSource International, custom synthesis) in assay buffer (50 mM Tris, pH=7.5, 10 mM MgCl2, 0.01% Brij-35, 0.1% BSA, 1 mM EGTA, 5% Glycerol and 5 mM DTT) for 60 minutes at 25° C. The reactions were stopped by the addition of 10 μL of detection buffer (50 mM Tris, pH 7.8, 0.5 mg/mL BSA, 150 mM NaCl), supplemented with EDTA, LANCE Eu-W1024 anti-phosphotyrosine (PY20), (PerkinElmer, Catalog #AD0067) and Streptavidin SureLight APC (PerkinElmer Catalog #CR130-100), for a final concentration of 15 mM, 1.5 nM and 75 nM, respectively. HTRF signals were read after 30 minutes incubation at room temperature on a PHERAstar FS plate reader (BMG LABTECH). Data was analyzed with IDBS XLfit and GraphPad Prism 5.0 software using a four parameter dose response curve to determine IC50 for each compound.

T3 sequence (O60674 826-1132): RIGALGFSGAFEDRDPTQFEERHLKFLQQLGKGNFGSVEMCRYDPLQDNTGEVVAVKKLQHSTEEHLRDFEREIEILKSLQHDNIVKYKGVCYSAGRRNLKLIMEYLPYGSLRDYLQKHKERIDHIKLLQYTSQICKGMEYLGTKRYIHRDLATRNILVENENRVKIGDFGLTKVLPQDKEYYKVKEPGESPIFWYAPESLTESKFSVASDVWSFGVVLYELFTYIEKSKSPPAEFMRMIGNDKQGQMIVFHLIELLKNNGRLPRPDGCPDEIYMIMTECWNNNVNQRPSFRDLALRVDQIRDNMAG
T1 sequence (O60674 536-812 V617F/W659A/W777A/F794H): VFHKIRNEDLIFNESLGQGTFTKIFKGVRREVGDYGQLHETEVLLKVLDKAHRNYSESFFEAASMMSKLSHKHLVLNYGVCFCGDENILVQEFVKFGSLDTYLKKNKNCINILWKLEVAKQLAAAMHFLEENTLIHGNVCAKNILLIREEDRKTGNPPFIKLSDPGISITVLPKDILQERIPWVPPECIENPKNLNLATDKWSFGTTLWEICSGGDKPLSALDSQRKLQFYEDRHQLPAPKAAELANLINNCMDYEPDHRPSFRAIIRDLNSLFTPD
T2 sequence (O60674 536-812 W659A/W777A/F794H): as the sequence (O60674 536-812 V617F/W659A/W777A/F794H) above, with F82V counted along it
T4 sequence (O60674 808-1132): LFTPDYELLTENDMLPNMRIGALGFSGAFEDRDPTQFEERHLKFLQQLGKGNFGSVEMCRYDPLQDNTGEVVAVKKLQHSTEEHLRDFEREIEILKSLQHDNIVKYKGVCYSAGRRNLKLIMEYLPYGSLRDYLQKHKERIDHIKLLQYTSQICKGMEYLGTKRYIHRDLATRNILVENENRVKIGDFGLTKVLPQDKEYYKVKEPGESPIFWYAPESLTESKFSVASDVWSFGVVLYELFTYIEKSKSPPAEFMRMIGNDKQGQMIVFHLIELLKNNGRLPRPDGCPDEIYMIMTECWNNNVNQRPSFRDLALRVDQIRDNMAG

Compound	IC50 [1]	IC50 [2]	IC50 [3]	IC50 [4]
1-(Ethylsulfonyl)-2″-(3-methoxy-1-methyl-1H-pyrazol-4-yl)-6″-methyl-1″-(1-(methyl-d3)-1H-indazol-5-yl)-3″,6″-dihydro-7″H-dispiro[azetidine-3,1′-cyclobutane-3′,8″-dipyrrolo[2,3-b:3′,2′-d]pyridin]-7″-one, trifluoroacetate salt [Example 99]	≤ 0.1 µM	≤ 0.1 µM	> 2.5 µM	
2′-(1-(1-Cyclopropylethyl)-1H-pyrazol-4-yl)-1-(ethylsulfonyl)-6′-(methyl-d3)-r-(1-methyl-1H-indazol-5-yl)-3′,6′-dihydro-7′H-spiro[azepane-4,8′-dipyrrolo[2,3-b:3′,2′-d]pyridin]-7′-one, trifluoroacetate salt [Example 104]	≤ 0.1 µM	≤ 0.1 µM	0.1 to 0.5 µM	0.1 to 0.5 µM
CN1C(=O)C2(CCOC2)c2c1cnc1[nH]c(-c3ccc(CN4CCC(S(C)(=O)=O)CC4)cc3)c(-c3ccccc3)c21 (racemic) [Example 2, 6-Methyl-2-(4-((4-(methylsulfonyl)piperidin-1-yl)methyl)phenyl)-1-phenyl-3,4′,5′,6-tetrahydro-2′H,7H-spiro[dipyrrolo[2,3-b:3′,2′-d]pyridine-8,3′-furan]-7-one trifluoroacetate salt]	≤ 0.1 µM	≤ 0.1 µM	> 2.5 µM	> 2.5 µM
CN1C(=O)C2(CCN(C(=O)CC3CCOCC3)C2)c2c1cnc1[nH]c(-c3ccc(CN4CCC(S(C)(=O)=O)CC4)cc3)c(-c3ccccc3)c21 (racemic) [Example 12, 6-Methyl-2-(4-((4-(methylsulfonyl)piperidin-1-yl)methyl)phenyl)-1-phenyl-1′-(2-(tetrahydro-2H-pyran-4-yl)acetyl)-3,6-dihydro-7H-spiro[dipyrrolo[2,3-b:3′,2′-d]pyridine-8,3′-pyrrolidin]-7-one trifluoroacetate salt]	0.1 to 0.5 µM	0.1 to 0.5 µM	> 2.5 µM	> 2.5 µM
CC(CC#N)n1cc(-c2ccc(-c3c(-c4cnn(C)c4)[nH]c4ncc5c(c34)C3(CCCC3)C(=O)N5C)cc2)cn1 (racemic) [Example 14, 3-(4-(4-(6′-Methyl-2′-(1-methyl-1H-pyrazol-4-yl)-7′-oxo-6′,7′-dihydro-3′H-spiro[cyclopentane-1,8′-dipyrrolo[2,3-b:3′,2′-d]pyridin]-1′-yl)phenyl)-1H-pyrazol-1-yl)butanenitrile trifluoroacetate salt]	0.1 to 0.5 µM	≤ 0.1 µM	> 2.5 µM	> 2.5 µM
[2H]C([2H])([2H])n1ncc2cc(-c3c(-c4cnn(C)c4)[nH]c4ncc5c(c34)[C@@]3(CC[C@H](NC(=O)C4(CC(N)=O)CCC4)C3)C(=O)N5C)ccc21 (racemic) [Example 100, trifluoroacetate salt]	0.5 to 1.25 µM	0.5 to 1.25 µM	> 2.5 µM	
CO[C@H]1CC[C@@](CC#N)(N2CCC3(CC2)C(=O)N(C)c2cnc4[nH]c(-c5cnn(C)c5)c(-c5ccc6c(cnn6C)c5)c4c23)CC1 (single isomer, unassigned) [Example 75b, 2-(4-Methoxy-1-(6-methyl-1-(1-methyl-1H-indazol-5-yl)-2-(1-methyl-1H-pyrazol-4-yl)-7-oxo-6,7-dihydro-3H-spiro[dipyrrolo[2,3-b:3′,2′-d]pyridine-8,4′-piperidin]-1′-yl)cyclohexyl)acetonitrile]	≤ 0.1 µM		0.5 to 1.25 µM	0.5 to 1.25 µM
O=C(O)C(F)(F)F.[2H]C([2H])([2H])n1ncc2cc(-c3c(-c4cnn5c4OCCC5)[nH]c4ncc5c(c34)C3(CC4(CN(S(=O)(=O)CC)C4)C3)C(=O)N5C)ccc21 [Example 98, 2″-(6,7-Dihydro-5H-pyrazolo[5,1-b][1,3]oxazin-3-yl)-1-(ethylsulfonyl)-6″-methyl-1″-(1-(methyl-d3)-1H-indazol-5-yl)-3″,6″-dihydro-7″H-dispiro[azetidine-3,1′-cyclobutane-3′,8″-dipyrrolo[2,3-b:3′,2′-d]pyridin]-7″-one, trifluoroacetate salt]	≤ 0.1 µM	≤ 0.1 µM	> 2.5 µM	
O=C(O)C(F)(F)F.[2H]C([2H])([2H])n1ccc(-c2[nH]c3ncc4c(c3c2-c2ccc3c(cnn3C)c2)C2(CC3(CCN(C(=O)CCC)CC3)C2)C(=O)N4C)c1 [Example 101, 1″-Butyryl-6-methyl-1-(1-methyl-1H-indazol-5-yl)-2-(1-(methyl-d3)-1H-pyrrol-3-yl)-3,6-dihydro-7H-dispiro[dipyrrolo[2,3-b:3′,2′-d]pyridine-8,1′-cyclobutane-3′,4″-piperidin]-7-one, trifluoroacetate salt]	≤ 0.1 µM	≤ 0.1 µM	1.25 to 2.5 µM	
O=C(O)C(F)(F)F.[2H]C([2H])([2H])n1ccc(-c2[nH]c3ncc4c(c3c2-c2ccc3c(cnn3C([2H])([2H])[2H])c2)C2(CC3(CCN(C(=O)CCC)CC3)C2)C(=O)N4C)c1 [Example 102, 1″-Butyryl-6-methyl-1-(1-(methyl-d3)-1H-indazol-5-yl)-2-(1-(methyl-d3)-1H-pyrrol-3-yl)-3,6-dihydro-7H-dispiro[dipyrrolo[2,3-b:3′,2′-d]pyridine-8,1′-cyclobutane-3′,4″-piperidin]-7-one, trifluoroacetate salt]	≤ 0.1 µM	≤ 0.1 µM	> 2.5 µM	
